Laboratory results taken from US4943636A, “Certain pyridyl-di-sulfide-alkylenecarbonxylate-ortho-nitro-phenylsulfonic acid esters useful for coupling biological materials” (Cetus Corporation, priority 1987, dated 1990).
Read-outs that look alike come from different tables or passages of the source.

Experiments:
[1] = Solubility in water / physical properties; type: physicochemical
bovine serum albumin = details: pH 8.5; compared with same ester of N-hydroxysuccinimide; cited from earlier work
[2] = prior-art agents; cited from earlier work
[3] = pH 7.4; cited from earlier work
cells = details: reacted with fluoresceinated avidin; compared with biotin-p-nitrophenyl ester; cited from earlier work
[4] = system: sheep red blood cells (SRBC); assay: Labelling of sheep red blood cells, cytofluorometry; type: cell-based; details: excitation at 360 nm
Method: Dansyl-sac-HNSA ester was prepared as described in Example 1A using molar equivalents of HNSA, dicyclohexylcarbodiimide and dansyl-ε-aminocaproic acid (from Sigma Chemicals). For use in coupling to sheep red blood cells (SRBC) the dansyl-sac-HNSA ester (50 mg) was prepared in 7 ml of 0.28 M cacodylate buffer, pH 6.9.
Sheep red blood cells were washed 4 times (400×g, 8 minutes) in G-PBS buffer (5% α-D-glucose w/v in PBSCa-Mg). To 1 ml of packed red blood cells was added the 7 ml of dansyl-sac-HNSA ester dropwise with gentle mixing for 10 minutes at room temperature. The reaction was done in foil-wrapped glassware to protect against photodecomposition. Following the reaction the cells were washed in cold G-PBS buffer containing 1% heat inactivated (56° C., 30 minutes) FCS (fetal calf serum) until the supernatants were colorless (a minimum of 4 washes).
The dansyl-sac-HNSA labelled SRBC were monitored using a Coulter EPICS V Cytofluorometer immediately after labeling and at 24 hours. […] This translates to an increase in intensity 720 times over unlabeled cells.

Stability in water = type: physicochemical; details: no nucleophiles added
avidin = details: for Percent Ester Remaining: room temperature
Method: A total of 220 μl of an aqueous solution of 4.65 mg of avidin per ml of solution (27 amino groups per avidin molecule) was charged to a siliconized glass tube with a stir bar. Approximately 1.5 mg of the mal-sac HNSA ester of Example 1A (of 88.5% purity), calculated from the data of Example 2A, was added and the mixture stirred at room temperature. Ten μl aliquots of the mixture were removed and added to 1.0 ml of 10 mM phosphate buffer at pH 7.0 at timed intervals. The spectrum of each aliquot was taken and then 50 μl of 4.8 N NaOH solution was added to each aliquot and the spectrum was retaken.

[5] = system: Horseradish Peroxidase (HRP); details: over a 30 minute period; pH 7.0
Method: A total of 40 mg (1.0 μmoles) of HRP (Sigma Chemical Co.) was dissolved in 0.5 ml of 0.1 M phosphate buffer at pH 7.0 to yield an amine concentration of 3.7×10^-3 M. Then, 5 mg (1.1×10^-5 moles) of the mal-sac HNSA ester of Example 1A, calculated from the data in Example 2A, was dissolved in 0.5 ml of the HRP solution. The mixture was stirred at room temperature. Five μl aliquots were removed from the incubating solution at timed intervals and were each diluted into 1.0 ml of 0.01 M sodium phosphate buffer at pH 7.0. The spectrum of each diluted aliguot was recorded and the absorbance at 406 nm measured. A total of 50 μl of 4.8 N NaOH was then added to each aliquot, each aliquot was mixed and its spectrum retaken and the absorbance at 406 nm measured. Because HRP has an absorbance at 406 nm due to its heme group and this absorbance changes after addition of sodium hydroxide, corrections for the absorbances due to the HRP were made on every dilution.
After 30 minutes the reaction was stopped using a Sephadex G-25 column as described in Example 2A. Fractions were collected and measured for absorbance at 406 nm and 280 nm.

streptavidin = system: streptavidin; set-up: species or system Streptomyces avidinii
Method: A total of 0.26 mg (4.3×10^-3 μmoles) of streptavidin purified from Streptomyces avidinii by the method of Hoffman et al., PNAS, 77, 4666-4668 (1980) was dissolved in 1.0 ml of phosphate buffered saline at pH 7.4 to yield a total amine concentration of 6.93×10^-5 M (16 NH2 /streptavidin). […] Good separation was achieved between the protein and the excess HNSA and unreacted HNSA ester. […] In this case […] of the amino groups on streptavidin (12.9 out of 16.0) reacted.

Storage stability = type: physicochemical; details: purified ester, stored desiccated
[6] = Hydrolysis of ester by sodium hydroxide; type: physicochemical; details: 4.8 N sodium hydroxide added, pH 7.0 phosphate buffer aliquot
Method: (§1) About 0.5 mg of the purified mal-sac HNSA ester from Example 1A was dissolved in 1 ml of distilled water.

biotinylated polylysine = details: over a 30 minute period; pH 7.4
Method: Biotinylated polylysine (0.6 ml; 73,000 D average mol. wt.) was adjusted to pH 7.4 with 0.015 ml of 2.5 N NaOH. Approximately 5 mg of mal-sac-HNSA was added to the biotinylated polylysine and stirred at room temperature. Ten μl aliquots were removed from the mixture at timed intervals and diluted into 1.0 ml of 0.01 M phosphate buffer at pH 7.0. The spectrum of each diluted aliquot was measured and the absorbance at 406 nm recorded. A total of 50 μl of 4.8 N NaOH solution was then added to each aliquot, mixed, and the spectrum retaken.
After 30 minutes of incubation time, the reaction was stopped using a Sephadex G-25 column, and the high molecular weight (biotin)4 -polylysine-(sac-mal)18 was well separated from excess HNSA and unreacted mal-sac-HNSA.

[7] = system: bovine serum albumin (BSA); details: for Percent Ester Remaining in Solution: pH 7.5, room temperature
Method: as §1
The difference between the post-base and initial free HNSA concentration represents the concentration of ester. From the actual concentration of ester the amount of ester to be added to the protein solution to achieve the desired degree of substitution can be calculated.
A total of 22 mg ([…]) of BSA (of molecular weight 66,296) was dissolved in 2.0 ml of 0.01 M phosphate buffer at pH 7.5 to yield a total amino concentration of 1.0×10^-2 moles per liter (assuming 59 lysines/BSA molecule). […] The reaction was carried out at room temperature. […]

For `O=C(CCSSc1ccccn1)Oc1ccc(S(=O)(=O)O)cc1[N+](=O)[O-]` [3-(2-pyridyldithio)propionyl-HNSA, 3-(2-pyridyldithio)propionyl-HNSA ester], the “physical properties relative to mal-sac HNSA ester” value [1] was “essentially the same properties”.

In the case of `O=C(CCCCCNc1ccc([N+](=O)[O-])cc1[N+](=O)[O-])Oc1ccc(S(=O)(=O)O)cc1[N+](=O)[O-]` [N-2,4-dinitrophenyl-6-aminocaproic acid ester of HNSA], the “efficiency in conjugating to bovine serum albumin” value (bovine serum albumin) is listed as “more efficient”.

In the case of `O=C(CCSSc1ccccn1)ON1C(=O)CCC1=O` [SPDP, N-succinimidyl-3-(2-pyridyldithio)propionate], the water solubility [2] is given as “lack of water solubility”.

For `O=C(CNC(=O)OCc1ccccc1)Oc1ccc(S(=O)(=O)O)cc1[N+](=O)[O-]` [Z-gly-HNSA, N-benzyloxycarbonyl-gly-HNSA], the “rate of aminolysis by glycine relative to hydrolysis rate” value [3] is given as “considerably higher than its hydrolysis rate”.

In the case of `O=C1N[C@H]2[C@H](CS[C@H]2CCCCC(=O)Oc2ccc(S(=O)(=O)O)cc2[N+](=O)[O-])N1` [biotin-HNSA], the “physical properties relative to mal-sac HNSA ester” value [1] is reported as “essentially the same physical properties”, the “amino groups of the polylysine polypeptide reacted” value (polylysine; 7 minutes) is reported as 28% and the reaction rate (polylysine; over a 5 minute period, pH 7.4) is reported as “essentially linear”. For the same molecule, the “increase in fluorescence of treated cells” value (cells) was “much larger increase in fluorescence”.

With `CN(C)c1cccc2c(S(=O)(=O)NCCCCCC(=O)Oc3ccc(S(=O)(=O)O)cc3[N+](=O)[O-])cccc12` [dansyl-sac-HNSA] the “increase in intensity over unlabeled cells” value [4] was 720 times.

In the case of `O=C(CCCCCN1C(=O)C=CC1=O)Oc1ccc(S(=O)(=O)O)cc1[N+](=O)[O-]` [mal-sac-HNSA, N-maleimido-6-aminocaproyl-HNSA], the solubility in water [1] is reported as “dissolve fully in water”, the stability in water (Stability in water) is reported as “stable in water for several hours” and the “Percent Ester Remaining” value (avidin; 0 minutes) is reported as 89%. The “Percent Ester Remaining” value (avidin; 5 minutes) was 86%, the “Percent Ester Remaining” value (avidin; 20 minutes) was 78% and the “amino groups of avidin reacted” value (avidin; 30 minutes, 27 amino groups per avidin molecule) was 13.5 amino groups. For the same molecule, the “Percent Ester Remaining” value (avidin; 30 minutes) was 73%, the reaction rate (avidin; FIG. 3) was “linear” and the reaction rate [5] was “essentially linear”. The “amino groups on streptavidin reacted” value (streptavidin; 20 minutes) was 79%, the “number of amino groups on streptavidin reacted” value (streptavidin; 20 minutes, out of 16.0) was 12.9 and the reaction rate (streptavidin; over the period measured, pH 7.4) was “essentially linear”. For the same molecule, the storage stability (Storage stability) was “stable for extended periods”, the hydrolysis by hydroxide [6] was “rapidly hydrolyzed” and the reaction rate (biotinylated polylysine) was “essentially linear”. For the same molecule, the “Concentration of Ester” value ([7]; 0 minutes) was 0.000156 mol/L, the “Percent Ester Remaining in Solution” value ([7]; 0 minutes) was 94.0% and the “Concentration of Ester” value ([7]; 5 minutes) was 0.000116 mol/L. For the same molecule, the “Percent Ester Remaining in Solution” value ([7]; 5 minutes) was 82.9%, the “Concentration of Ester” value ([7]; 9 minutes) was 0.000103 mol/L and the “Percent Ester Remaining in Solution” value ([7]; 9 minutes) was 78.3%. The “Concentration of Ester” value ([7]; 14 minutes) was 0.000111 mol/L, the “Percent Ester Remaining in Solution” value ([7]; 14 minutes) was 74.5% and the ester reacted ([7]; 15 minutes) was 0.0026 mol/L. The “ε-amino groups of BSA substituted” value ([7]; 15 minutes, of 59 ε-amino groups) was 25.9%, the “Concentration of HNSA” value ([7]; With NaOH, 0 minutes) was 0.000166 mol/L and the “Concentration of HNSA” value ([7]; With NaOH, 5 minutes) was 0.00014 mol/L. The “Concentration of HNSA” value ([7]; With NaOH, 9 minutes) was 0.000132 mol/L, the “Concentration of HNSA” value ([7]; With NaOH, 14 minutes) was 0.000149 mol/L and the “Concentration of HNSA” value ([7]; Without NaOH, 0 minutes) was 1.03e-05 mol/L. For the same molecule, the “Concentration of HNSA” value ([7]; Without NaOH, 5 minutes) was 2.44e-05 mol/L, the “Concentration of HNSA” value ([7]; Without NaOH, 9 minutes) was 2.87e-05 mol/L and the “Concentration of HNSA” value ([7]; Without NaOH, 14 minutes) was 3.77e-05 mol/L. For the same molecule, the reaction rate ([7]; over a 15 minute period) was “essentially linear”.

With “mal-sac-BSA: product of the first reaction of mal-sac-HNSA ester with bovine serum albumin” the “mal-sac groups per molecule” value ([7]; 15 minutes) was 16 mal-sac groups per molecule.
